The values that follow come from article PMC12196213, “New Insights into the Anticancer Effects and Toxicogenomic Safety of Two β-Lapachone Derivatives” (Pharmaceuticals, 2025).

The subject of one series is HeLa cells. The series is described as follows: Morphological analysis, rapid panoptic staining. Type of series: cell-based, human. The following applies: 72 h, at IC50 and 2 × IC50. As for the experimental part:
Following the screening of IC50 values and SI in solid tumor cells, indications of potential cell death were explored in the most sensitive cell line. The morphological changes were evaluated according to protocols previously published with modifications. Thus, HeLa cells were seeded in 12-well plates at a concentration of 4 × 10^5 cells/mL and incubated overnight for adhesion. […] After the treatment period, the medium was aspirated, and the plate was washed twice with PBS. The cells were fixed and stained using the Panoptic Rapid Kit following the manufacturer’s protocol. Morphological analyses were conducted to observe cellular alterations indicative of cell death, including cellular volume reduction, membrane integrity, karyolysis, pyknosis, karyorrhexis, apoptotic bodies, vacuoles, and cellular debris.

Details of series [1]: method as in PMID 35934135. The following applies: cited from earlier work; for toxicity category, Globally Harmonized System of Classification and Labelling of Chemicals: acute toxicity; for deaths in acute toxicity experiments: dose of 2000 mg/kg.
The subject of series [2] is polychromatic erythrocytes (PCE) from Swiss mice. The series is described as follows: Micronucleus assay in vivo. The arrangement: species or system Mus musculus. To be noted: intraperitoneally, 500, 1000 and 2000 mg/kg, blood 48 h after administration. As for the experimental part: Forty female Mus musculus mice (Swiss strain) were used. The animals were divided into 8 groups, with 5 animals each: G1—negative control (NC) treated with the vehicle solution intraperitoneally; G2—positive control (PC) treated intraperitoneally with cyclophosphamide at a dose of 30 mg/kg; groups exposed to the BV3 derivative—Group BV3—I intraperitoneally at doses of 2000 mg/kg; Group BV3—II 1000 mg/kg; Group BV3—III 500 mg/kg; and groups exposed to BV5—Group BV5—I, received BV5 intraperitoneally at doses of 2000 mg/kg; Group BV5—II 1000 mg/kg; and Group BV5—III 500 mg/kg. For the comet assay, approximately 0.5 mL of blood from each animal was collected via the tail vein 6–8 h after administration of the compounds. For the micronucleus test, 1 mL of blood from each animal was collected by cardiac puncture 48 h after administration of the compounds. For that collection, the mice were anesthetized with ketamine (100 mg/kg) and xylazine (10 mg/kg), intraperitoneally. […]
The same mice from the comet test (females n = 40) were used, equally with the 8 experimental groups mentioned above. […] Two slides were prepared per animal, in which 2000 polychromatic erythrocytes (PCE) were analyzed for the presence of micronuclei. The analysis was carried out using a Zeiss Axio Imager M2 fluorescence microscope, with a 40× objective and Alexa Fluor 488 filter (Carl Zeiss AG™, Germany).

Series [3] relates to peripheral blood erythrocytes from Swiss mice. The series is described as follows: Alkaline comet assay in vivo. Also on record: species or system Mus musculus. The following applies: for damage frequency (comet assay) compared to negative control / damage index (comet assay) compared to negative control: intraperitoneally. As for the experimental part:
Forty female Mus musculus mice (Swiss strain) were used. The animals were divided into 8 groups, with 5 animals each: G1—negative control (NC) treated with the vehicle solution intraperitoneally; G2—positive control (PC) treated intraperitoneally with cyclophosphamide at a dose of 30 mg/kg; groups exposed to the BV3 derivative—Group BV3—I intraperitoneally at doses of 2000 mg/kg; Group BV3—II 1000 mg/kg; Group BV3—III 500 mg/kg; and groups exposed to BV5—Group BV5—I, received BV5 intraperitoneally at doses of 2000 mg/kg; Group BV5—II 1000 mg/kg; and Group BV5—III 500 mg/kg. For the comet assay, approximately 0.5 mL of blood from each animal was collected via the tail vein 6–8 h after administration of the compounds. For the micronucleus test, 1 mL of blood from each animal was collected by cardiac puncture 48 h after administration of the compounds. For that collection, the mice were anesthetized with ketamine (100 mg/kg) and xylazine (10 mg/kg), intraperitoneally. Immediately after blood collection, the animals were euthanized with high doses of anesthetics (ketamine 300 mg/kg and xylazine 30 mg/kg). The in vivo experiments were approved by the Ethics Committee on the Use of Animals (CEUA) of the Federal University of Pernambuco, under process no. 004/2023.
The female mice (n = 40) were equally distributed into 8 experimental groups; the groups were composed of 5 female animals each. After administering the solutions and compounds to the groups, blood samples were taken 6 and 8 h after treatment. Subsequently, 15 µL of blood was used, which was homogenized with 100 µL of low-melting-point agarose (LM agarose) and subsequently deposited on slides previously prepared with standard agarose. The slides were covered with coverslips and left at 4 °C for 10 min. After refrigeration, the coverslips were removed and the slides were placed in a lysis solution (2.5 M NaCl, 100 mM EDTA, 10 mM tris, 1% Triton x-100, 10% DMSO, pH 13) for 48 h. After lysis, the slides were left in an alkaline electrophoresis buffer ([…] and […] EDTA disodium salt, pH 13) for 20 min to unroll the DNA and then subjected to electrophoresis in a horizontal vat for 20 min, with a current of ± 300 mA and potential difference of 32 V. After electrophoresis, the slides were neutralized for 15 min in 0.4 M tris-HCl buffer, pH 7.5, and fixed for 5 min in absolute ethanol. The slides were stained with 100 µL of a 1 µg/mL acridine orange solution. All test steps were carried out under red light. To analyze damage levels, 100 nucleoids from each animal were evaluated for damage level. For this, each nucleoid was classified into one of five classes according to the proportion of DNA in the comet’s tail and head: 0 (no damage); 1 (little apparent damage); 2 (medium damage); 3 (medium damage with longer tail); and 4 (maximum damage). The Damage Index (DI) was thus calculated according to the formula DI=0×nºclass comets 0+1×nºclass comets 1+2×nºclass comets 2+3×nºclass comets 3+4×(nºclass comets 4)
Thus, the values obtained could range from 0 (no damage) to 400 (maximum damage). Additionally, the Frequency of damage (FD) was calculated based on the percentage of all nucleoids with some damage (class 1 to class 4) relative to the total number of nucleoids counted per animal: FD=nºofdamaged comets−nºclass comets 0×100/(nºtotal)

Consider `CC1(C)CCC2=C(O1)c1ccccc1/C(=N/NC(=S)Nc1ccc([N+](=O)[O-])cc1)C2=O` [BV3, 2-(2,2-dimethyl-5-oxo-3,4-dihydro-2H-benzo[h]chromen-6(5H)-ylidene)-N-(4nitrophen-yl)thio-carbohydrazide], for which, in the series on HeLa cells, the morphological changes entry is “reduced cellular volume, cells with condensed chromatin, and cellular debris”. In series [1], the “toxicity category, Globally Harmonized System of Classification and Labelling of Chemicals” value is “Category 5”; the “deaths in acute toxicity experiments” value is reported as “no deaths”. Also, the “number of micronuclei compared to negative control” value in series [2] is “no differences”. In series [3] (2000 mg/kg), the “damage frequency (comet assay) compared to negative control” value was “decrease” and the “damage index (comet assay) compared to negative control” value (shortened to “damage index (comet assay)”) is “decrease”. Besides, in series [3] (500 and 1000 mg/kg), the “damage frequency (comet assay) compared to negative control” value was “no significant differences” and the “damage index (comet assay)” value was “no significant differences”.

On to `Cc1ccc(NC(=S)N/N=C2\C(=O)C3=C(OC(C)(C)CC3)c3ccccc32)cc1` [BV5, 2-(2,2-dimethyl-5-oxo-3,4-dihydro-2H-benzo[h]chromen-6(5H)-ylidene)-N-(p-tolyl)-thiocarbohydrazide], for which the morphological changes result with HeLa cells was “loss of membrane integrity, reduced cellular volume, presence of fragmented/pyknotic nuclei, chromatin condensation, and cellular debris”. Also, in series [1], the “toxicity category, Globally Harmonized System of Classification and Labelling of Chemicals” value is on record as “Category 5”; the “deaths in acute toxicity experiments” value is on record as “no deaths”. Further, in series [2], the “number of micronuclei compared to negative control” value is listed as “no differences”. In addition, the “frequency of damage (comet assay)” value in series [3] (any of the tested doses (500, 1000, 2000 mg/kg)) is on record as “no difference”. The “damage index (comet assay)” value in series [3] (2000 mg/kg) is “increase”. Moreover, the “damage index (comet assay)” value in series [3] (500 and 1000 mg/kg) is “no differences”.
